The source of these data is ChEMBL document CHEMBL3272252, “A novel prostaglandin endoperoxide mimic, prostaglandin F2alpha acetal” (J Med Chem, 1977).

Data set [1] can be described thus: Vasocontractile activity in gerbil colon assessed as smooth muscle contractile response relative to PGF2alpha. Format: functional, Gerbillinae, Muscle tissue.
Data set [2] can be described thus: Vasocontractile activity in rabbit aorta assessed as smooth muscle contractile response relative to PGE2. Format: functional, Oryctolagus cuniculus, Muscle tissue.
Data set [3] concerns Platelet. Nature of the data set: Induction of irreversible platelet aggregation in human citrated platelet-rich plasma at 100 to 250 ng/ml. Format: functional.
Data set [4] is described as follows: Retardation factor of the compound using CHCl3-EtOAc-HOAc at ratio of 50:50:1 as solvent system by thin layer chromatography. Format: physicochemical.
Data set [5] in a line: Vasocontractile activity in dog lateral saphenous vein assessed as smooth muscle contractile response relative to PGF2alpha. Format: functional, Canis lupus familiaris.
Data set [6] can be described thus: Stability of the compound in Krebs solution at pH 8.2 at 4 degC after 1 week. Format: physicochemical. The following applies: buffer, pH 8.2, 168 h.
Data set [7] is described as follows: (§1) Vasocontractile activity in dog lateral saphenous vein assessed as smooth muscle contractile response. The conditions noted are these: Canis lupus familiaris, read-out: ED50 (the source's name). Format: functional.
In another data set the test system is Gerbillinae. Nature of the data set: Vasocontractile activity in gerbil colon assessed as smooth muscle contractile response. Format: functional, tissue-based. The following applies: Muscle tissue.
For a further data set, the species on record is Oryctolagus cuniculus. Nature of the data set: Vasocontractile activity in rabbit aorta assessed as smooth muscle contractile response. Format: functional, tissue-based. The conditions noted are these: Muscle tissue.
Data set [8] relates to Platelet. Nature of the data set: Induction of reversible platelet aggregation in human citrated platelet-rich plasma at 0.7 to 4 ug/ml. Format: functional.
Data set [9] relates to Platelet. Kind of data set: Induction of irreversible platelet aggregation in human citrated platelet-rich plasma at 5 to 10 ug/ml. Format: functional.
Data set [10] in a line: Vasocontractile activity in dog lateral saphenous vein assessed as smooth muscle contractile response in presence of PG synthase inhibitor indomethacin. Format: functional, tissue-based. The conditions noted are these: Canis lupus familiaris.
Data set [11] relates to Platelet. Nature of the data set: Induction of platelet aggregation in human citrated platelet-rich plasma assessed as internal contractile response with granules being squeezed into cell centre surrounded closely by microtubules and contractile microfilaments by transmission electron microscopy. Format: functional.
For a further data set, the species on record is Canis lupus familiaris. The description is as §1. Format: functional.
Data set [12] has as its system Platelet. Kind of data set: Induction of platelet aggregation in human citrated platelet-rich plasma in presence of 10 ug/ml PG synthase inhibitor indomethacin. Format: functional.

In brackets after ≈: the same amount, converted by molar mass. Activity calls are given as the source filed them. The rule behind the calls is not given here.

`CCCCC[C@@H](/C=C/[C@@H]1[C@@H](C/C=C\CCCC(=O)O)[C@H]2C[C@H]1OO2)OO`: the Activity in data set [1] was 1.5%; in data set [2], 80%. Moreover, the result in the data set on Platelet [3] was Active.

With `CCCCC[C@H](O)/C=C/[C@@H]1[C@@H](C/C=C\CCCC(=O)O)[C@@H]2C[C@H]1OC(C)O2` (mixture of isomers), the Rf in data set [4] is 0.49.

For `CCCCC[C@H](O)/C=C/[C@@H]1[C@@H](C/C=C\CCCC(=O)O)[C@@H]2C[C@H]1OC(C)O2` (stereo in doubt; 1a) [listing 1 of 2 here], the Activity in data set [5] worked out at 32%; in [1] it was 0.12%; in data set [2] it was 19%. Besides, the Stability result in [6] was “Stable”. Besides, the Rf in data set [4] is 0.53. In addition, the EC50 in data set [7] stood at 5.8 ng/mL (≈ 0.0152 µM).

In the case of `CCCCC[C@H](O)/C=C/[C@@H]1[C@@H](C/C=C\CCCC(=O)O)[C@@H]2C[C@H]1OC(C)O2` (stereo in doubt; 1a) [listing 2 of 2 here], the Activity entry in the data set with Gerbillinae, in the data set filed under Oryctolagus cuniculus and in the data set filed under Canis lupus familiaris was “Dose-dependent effect” each time. Moreover, the outcome (with Platelet [8]; with Platelet [9]; in data set [10]; with Platelet [11]; in the data set with Platelet [12]) was Active.
